{"source": "the supplement of paper PMC10307832", "assay_in_all_cases": "relative viability (nuclei count vs DMSO), 5 days (fraction); higher = more cells survive", "key": {"[1]": {"test_system": "NCI-H647", "procedure,_shortened": "(§1)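 Lung cancer cell lines were pin-tool dosed in 1536-well plates on the day after seeding, with either a lone drug or a fixed anchor-drug dose plus five library-drug doses (not always all listed) in √10 steps. Nuclei were counted on 4× images after 5 days. Relative viability is the ratio of treated-well to vehicle-well nuclei counts, with each value a median of duplicate plates.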"}, "[2]": {"test_system": "NCI-H23", "procedure,_shortened": "as §1"}, "[3]": {"test_system": "NCI-H650", "procedure,_shortened": "as §1"}, "[4]": {"test_system": "NCI-H3122", "procedure,_shortened": "as §1"}, "[5]": {"test_system": "LCLC-103H", "procedure,_shortened": "as §1"}, "[6]": {"test_system": "BEN", "procedure,_shortened": "as §1"}, "[7]": {"test_system": "NCI-H2087", "procedure,_shortened": "as §1"}, "[8]": {"test_system": "NCI-H2023", "procedure,_shortened": "as §1"}, "[9]": {"test_system": "NCI-H1395", "procedure,_shortened": "as §1"}, "[10]": {"test_system": "LOU-NH91", "procedure,_shortened": "as §1"}, "[11]": {"test_system": "HARA", "procedure,_shortened": "as §1"}, "[12]": {"test_system": "NCI-H441", "procedure,_shortened": "as §1"}, "[13]": {"test_system": "NCI-H596", "procedure,_shortened": "as §1"}, "[14]": {"test_system": "NCI-H727", "procedure,_shortened": "as §1"}, "[15]": {"test_system": "NCI-H2347", "procedure,_shortened": "as §1"}, "[16]": {"test_system": "EMC-BAC-2", "procedure,_shortened": "as §1"}, "[17]": {"test_system": "NCI-H1993", "procedure,_shortened": "as §1"}, "[18]": {"test_system": "HCC-44", "procedure,_shortened": "as §1"}, "[19]": {"test_system": "201T", "procedure,_shortened": "as §1"}, "[20]": {"test_system": "NCI-H838", "procedure,_shortened": "as §1"}, "[21]": {"test_system": "NCI-H2126", "procedure,_shortened": "as §1"}}, "data": [{"smiles": "CCN(CC)CCCCNc1ncc2cc(-c3cc(OC)cc(OC)c3)c(NC(=O)NC(C)(C)C)nc2n1", "note": "+ CS(=O)(=O)N1CCN(Cc2cc3nc(-c4cccc5[nH]ncc45)nc(N4CCOCC4)c3s2)CC1 [Pictilisib] (partner 1 µM)", "values": [{"measurement": "relative viability", "setting": "[1]; first compound 0.03162 µM", "result": 0.471}, {"measurement": "relative viability", "setting": "[1]; first compound 0.1 µM", "result": 0.486}, {"measurement": "relative viability", "setting": "[1]; first compound 0.3162 µM", "result": 0.465}, {"measurement": "relative viability", "setting": "[1]; first compound 1 µM", "result": 0.348}, {"measurement": "relative viability", "setting": "[2]; first compound 0.01 µM", "result": 0.414}, {"measurement": "relative viability", "setting": "[2]; first compound 0.03162 µM", "result": 0.411}, {"measurement": "relative viability", "setting": "[2]; first compound 0.1 µM", "result": 0.463}, {"measurement": "relative viability", "setting": "[2]; first compound 0.3162 µM", "result": 0.37}, {"measurement": "relative viability", "setting": "[2]; first compound 1 µM", "result": 0.435}, {"measurement": "relative viability", "setting": "[3]; first compound 0.01 µM", "result": 0.874}, {"measurement": "relative viability", "setting": "[3]; first compound 0.03162 µM", "result": 0.889}, {"measurement": "relative viability", "setting": "[3]; first compound 0.1 µM", "result": 0.973}, {"measurement": "relative viability", "setting": "[3]; first compound 0.3162 µM", "result": 0.998}, {"measurement": "relative viability", "setting": "[3]; first compound 1 µM", "result": 0.925}, {"measurement": "relative viability", "setting": "[4]; first compound 0.01 µM", "result": 0.618}, {"measurement": "relative viability", "setting": "[4]; first compound 0.03162 µM", "result": 0.598}, {"measurement": "relative viability", "setting": "[4]; first compound 0.1 µM", "result": 0.674}, {"measurement": "relative viability", "setting": "[4]; first compound 0.3162 µM", "result": 0.64}, {"measurement": "relative viability", "setting": "[4]; first compound 1 µM", "result": 0.592}, {"measurement": "relative viability", "setting": "[5]; first compound 0.01 µM", "result": 0.551}, {"measurement": "relative viability", "setting": "[5]; first compound 0.03162 µM", "result": 0.661}, {"measurement": "relative viability", "setting": "[5]; first compound 0.1 µM", "result": 0.595}, {"measurement": "relative viability", "setting": "[5]; first compound 0.3162 µM", "result": 0.553}, {"measurement": "relative viability", "setting": "[5]; first compound 1 µM", "result": 0.443}, {"measurement": "relative viability", "setting": "[6]; first compound 0.01 µM", "result": 0.587}, {"measurement": "relative viability", "setting": "[6]; first compound 0.03162 µM", "result": 0.516}, {"measurement": "relative viability", "setting": "[6]; first compound 0.1 µM", "result": 0.525}, {"measurement": "relative viability", "setting": "[6]; first compound 0.3162 µM", "result": 0.59}, {"measurement": "relative viability", "setting": "[6]; first compound 1 µM", "result": 0.485}, {"measurement": "relative viability", "setting": "[7]; first compound 0.01 µM", "result": 0.784}, {"measurement": "relative viability", "setting": "[7]; first compound 0.03162 µM", "result": 0.827}, {"measurement": "relative viability", "setting": "[7]; first compound 0.1 µM", "result": 0.918}, {"measurement": "relative viability", "setting": "[7]; first compound 0.3162 µM", "result": 0.961}, {"measurement": "relative viability", "setting": "[7]; first compound 1 µM", "result": 0.984}, {"measurement": "relative viability", "setting": "[8]; first compound 0.01 µM", "result": 0.22}, {"measurement": "relative viability", "setting": "[8]; first compound 0.03162 µM", "result": 0.222}, {"measurement": "relative viability", "setting": "[8]; first compound 0.1 µM", "result": 0.221}, {"measurement": "relative viability", "setting": "[8]; first compound 0.3162 µM", "result": 0.232}, {"measurement": "relative viability", "setting": "[8]; first compound 1 µM", "result": 0.193}, {"measurement": "relative viability", "setting": "[9]; first compound 0.03162 µM", "result": 0.486}, {"measurement": "relative viability", "setting": "[9]; first compound 0.1 µM", "result": 0.949}, {"measurement": "relative viability", "setting": "[9]; first compound 0.3162 µM", "result": 0.479}, {"measurement": "relative viability", "setting": "[9]; first compound 1 µM", "result": 0.346}, {"measurement": "relative viability", "setting": "[10]; first compound 0.01 µM", "result": 0.476}, {"measurement": "relative viability", "setting": "[10]; first compound 0.03162 µM", "result": 0.494}, {"measurement": "relative viability", "setting": "[10]; first compound 0.1 µM", "result": 0.611}, {"measurement": "relative viability", "setting": "[10]; first compound 0.3162 µM", "result": 0.524}, {"measurement": "relative viability", "setting": "[10]; first compound 1 µM", "result": 0.51}, {"measurement": "relative viability", "setting": "[11]; first compound 0.01 µM", "result": 0.421}, {"measurement": "relative viability", "setting": "[11]; first compound 0.03162 µM", "result": 0.356}, {"measurement": "relative viability", "setting": "[11]; first compound 0.1 µM", "result": 0.307}, {"measurement": "relative viability", "setting": "[11]; first compound 0.3162 µM", "result": 0.485}, {"measurement": "relative viability", "setting": "[11]; first compound 1 µM", "result": 0.176}, {"measurement": "relative viability", "setting": "[12]; first compound 0.01 µM", "result": 0.48}, {"measurement": "relative viability", "setting": "[12]; first compound 0.03162 µM", "result": 0.554}, {"measurement": "relative viability", "setting": "[12]; first compound 0.1 µM", "result": 0.412}, {"measurement": "relative viability", "setting": "[12]; first compound 0.3162 µM", "result": 0.53}, {"measurement": "relative viability", "setting": "[12]; first compound 1 µM", "result": 0.407}, {"measurement": "relative viability", "setting": "[13]; first compound 0.01 µM", "result": 0.422}, {"measurement": "relative viability", "setting": "[13]; first compound 0.03162 µM", "result": 0.418}, {"measurement": "relative viability", "setting": "[13]; first compound 0.1 µM", "result": 0.369}, {"measurement": "relative viability", "setting": "[13]; first compound 0.3162 µM", "result": 0.378}, {"measurement": "relative viability", "setting": "[13]; first compound 1 µM", "result": 0.35}, {"measurement": "relative viability", "setting": "[14]; first compound 0.01 µM", "result": 0.413}, {"measurement": "relative viability", "setting": "[14]; first compound 0.03162 µM", "result": 0.417}, {"measurement": "relative viability", "setting": "[14]; first compound 0.1 µM", "result": 0.362}, {"measurement": "relative viability", "setting": "[14]; first compound 0.3162 µM", "result": 0.627}, {"measurement": "relative viability", "setting": "[14]; first compound 1 µM", "result": 0.41}, {"measurement": "relative viability", "setting": "[15]; first compound 0.01 µM", "result": 0.772}, {"measurement": "relative viability", "setting": "[15]; first compound 0.03162 µM", "result": 0.656}, {"measurement": "relative viability", "setting": "[15]; first compound 0.1 µM", "result": 0.611}, {"measurement": "relative viability", "setting": "[15]; first compound 0.3162 µM", "result": 0.89}, {"measurement": "relative viability", "setting": "[15]; first compound 1 µM", "result": 0.655}, {"measurement": "relative viability", "setting": "[16]; first compound 0.01 µM", "result": 0.581}, {"measurement": "relative viability", "setting": "[16]; first compound 0.03162 µM", "result": 0.507}, {"measurement": "relative viability", "setting": "[16]; first compound 0.1 µM", "result": 0.546}, {"measurement": "relative viability", "setting": "[16]; first compound 0.3162 µM", "result": 0.574}, {"measurement": "relative viability", "setting": "[16]; first compound 1 µM", "result": 0.456}, {"measurement": "relative viability", "setting": "[17]; first compound 0.01 µM", "result": 0.759}, {"measurement": "relative viability", "setting": "[17]; first compound 0.03162 µM", "result": 0.947}, {"measurement": "relative viability", "setting": "[17]; first compound 0.1 µM", "result": 0.861}, {"measurement": "relative viability", "setting": "[17]; first compound 0.3162 µM", "result": 0.86}, {"measurement": "relative viability", "setting": "[17]; first compound 1 µM", "result": 0.91}, {"measurement": "relative viability", "setting": "[18]; first compound 0.01 µM", "result": 0.687}, {"measurement": "relative viability", "setting": "[18]; first compound 0.03162 µM", "result": 0.746}, {"measurement": "relative viability", "setting": "[18]; first compound 0.1 µM", "result": 0.603}, {"measurement": "relative viability", "setting": "[18]; first compound 0.3162 µM", "result": 0.635}, {"measurement": "relative viability", "setting": "[18]; first compound 1 µM", "result": 0.451}, {"measurement": "relative viability", "setting": "[19]; first compound 0.01 µM", "result": 0.741}, {"measurement": "relative viability", "setting": "[19]; first compound 0.03162 µM", "result": 0.663}, {"measurement": "relative viability", "setting": "[19]; first compound 0.1 µM", "result": 0.775}, {"measurement": "relative viability", "setting": "[19]; first compound 0.3162 µM", "result": 0.677}, {"measurement": "relative viability", "setting": "[19]; first compound 1 µM", "result": 0.573}, {"measurement": "relative viability", "setting": "[20]; first compound 0.01 µM", "result": 0.441}, {"measurement": "relative viability", "setting": "[20]; first compound 0.03162 µM", "result": 0.4}, {"measurement": "relative viability", "setting": "[20]; first compound 0.1 µM", "result": 0.395}, {"measurement": "relative viability", "setting": "[20]; first compound 0.3162 µM", "result": 0.383}, {"measurement": "relative viability", "setting": "[20]; first compound 1 µM", "result": 0.244}, {"measurement": "relative viability", "setting": "[21]; first compound 0.01 µM", "result": 0.498}, {"measurement": "relative viability", "setting": "[21]; first compound 0.03162 µM", "result": 0.489}, {"measurement": "relative viability", "setting": "[21]; first compound 0.1 µM", "result": 0.508}, {"measurement": "relative viability", "setting": "[21]; first compound 0.3162 µM", "result": 0.523}, {"measurement": "relative viability", "setting": "[21]; first compound 1 µM", "result": 0.477}]}]}
